For 23 compounds, IC50 results are on record in ChEMBL document CHEMBL3734751, “Discovery of novel, potent and low-toxicity angiotensin II receptor type 1 (AT1) blockers: Design, synthesis and biological evaluation of 6-substituted aminocarbonyl benzimidazoles with a chiral center” (Eur J Med Chem, 2015).

In general, IC50 refers to the concentration that gives 50% inhibition.

This test deals with T1, Type-1 angiotensin II receptor (Homo sapiens, UniProt P30556).
T1 sequence (P30556 whole entry): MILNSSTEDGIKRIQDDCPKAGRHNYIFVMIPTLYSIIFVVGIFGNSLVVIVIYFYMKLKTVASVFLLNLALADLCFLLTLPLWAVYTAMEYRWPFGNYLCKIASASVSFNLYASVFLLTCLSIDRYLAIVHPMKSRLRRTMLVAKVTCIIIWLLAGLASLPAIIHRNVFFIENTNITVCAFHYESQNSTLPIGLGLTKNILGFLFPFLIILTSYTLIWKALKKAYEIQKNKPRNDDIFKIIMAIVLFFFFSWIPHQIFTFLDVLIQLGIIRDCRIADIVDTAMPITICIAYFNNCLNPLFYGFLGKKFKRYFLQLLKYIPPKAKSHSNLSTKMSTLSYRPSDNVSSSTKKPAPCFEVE
Kind of test: Displacement of [125I]Sar1Ile8-Ang2 from human AT1 receptor expressed in CHO-K1 cell membranes after 180 mins.
In the case of `CCSc1nc2c(C)cc(C(=O)NC[C@H](C)c3ccccc3)cc2n1Cc1ccc(-c2ccccc2C(=O)O)cc1`, the IC50 was 487 nM.
With `CCOc1nc2c(C)cc(C(=O)NC[C@@H](C)c3ccccc3)cc2n1Cc1ccc(-c2ccccc2-c2nnn[nH]2)cc1` the figure was 6.3 nM.
With `CCCc1nc2c(C)cc(C(=O)N[C@H](C)c3ccccc3)cc2n1Cc1ccc(-c2ccccc2C(=O)O)cc1` the figure was 90.5 nM; with `CCCc1nc2c(C)cc(C(=O)NC[C@@H](O)c3ccccc3)cc2n1Cc1ccc(-c2ccccc2C(=O)O)cc1`, 104 nM.
`CCCc1nc2c(C)cc(C(=O)NC[C@H](O)c3ccccc3)cc2n1Cc1ccc(-c2ccccc2C(=O)O)cc1` had an IC50 of 93.9 nM. This IC50 and that of the compound before are within 1.5-fold of each other.
Compound `CCCc1nc2c(C)cc(C(=O)NC[C@H](O)c3ccccc3)cc2n1Cc1ccc(-c2ccccc2-c2nnn[nH]2)cc1` yielded an IC50 of 161 nM.
With `CCSc1nc2c(C)cc(C(=O)NC[C@@H](C)c3ccccc3)cc2n1Cc1ccc(-c2ccccc2-c2nnn[nH]2)cc1` the figure was 622 nM; with `CSc1nc2c(C)cc(C(=O)NC[C@@H](C)c3ccccc3)cc2n1Cc1ccc(-c2ccccc2C(=O)O)cc1`, 1370 nM.
With `CCSc1nc2c(C)cc(C(=O)NC[C@H](C)c3ccccc3)cc2n1Cc1ccc(-c2ccccc2-c2nnn[nH]2)cc1` the figure was 503 nM; with `CCOc1nc2c(C)cc(C(=O)NC[C@H](C)c3ccccc3)cc2n1Cc1ccc(-c2ccccc2-c2nnn[nH]2)cc1`, 3.5 nM; with `CCOc1nc2c(C)cc(C(=O)NC[C@@H](C)c3ccccc3)cc2n1Cc1ccc(-c2ccccc2C(=O)O)cc1`, 57.4 nM.
With `CCCSc1nc2c(C)cc(C(=O)NC[C@@H](C)c3ccccc3)cc2n1Cc1ccc(-c2ccccc2C(=O)O)cc1` the figure was 87.2 nM; with `CCCSc1nc2c(C)cc(C(=O)NC[C@H](C)c3ccccc3)cc2n1Cc1ccc(-c2ccccc2C(=O)O)cc1`, 61.2 nM; with `CCCc1nc2c(C)cc(C(=S)NC[C@H](C)c3ccccc3)cc2n1Cc1ccc(-c2ccccc2-c2nnn[nH]2)cc1`, 366 nM.
As to `CSc1nc2c(C)cc(C(=O)NC[C@H](C)c3ccccc3)cc2n1Cc1ccc(-c2ccccc2C(=O)O)cc1`, the IC50 was 609 nM.
In the case of `CCSc1nc2c(C)cc(C(=O)NC[C@@H](C)c3ccccc3)cc2n1Cc1ccc(-c2ccccc2C(=O)O)cc1` it was 788 nM; in that of `CSc1nc2c(C)cc(C(=O)NC[C@H](C)c3ccccc3)cc2n1Cc1ccc(-c2ccccc2-c2nnn[nH]2)cc1`, 671 nM; in that of `CCCc1nc2c(C)cc(C(=S)NC[C@@H](C)c3ccccc3)cc2n1Cc1ccc(-c2ccccc2-c2nnn[nH]2)cc1`, 343 nM.
Compound `CSc1nc2c(C)cc(C(=O)NC[C@@H](C)c3ccccc3)cc2n1Cc1ccc(-c2ccccc2-c2nnn[nH]2)cc1` displayed an IC50 of 699 nM.
`CCCc1nc2c(C)cc(C(=S)NC[C@H](C)c3ccccc3)cc2n1Cc1ccc(-c2ccccc2C(=O)O)cc1` showed an IC50 of 1120 nM. This IC50 lies about 1.6-fold higher than the previous one.
In the case of `CCCc1nc2c(C)cc(C(=O)NC[C@@H](O)c3ccccc3)cc2n1Cc1ccc(-c2ccccc2-c2nnn[nH]2)cc1` it was 106 nM; in that of `CCCc1nc2c(C)cc(C(=S)NC[C@@H](C)c3ccccc3)cc2n1Cc1ccc(-c2ccccc2C(=O)O)cc1`, 738 nM; in that of `CCOc1nc2c(C)cc(C(=O)NC[C@H](C)c3ccccc3)cc2n1Cc1ccc(-c2ccccc2C(=O)O)cc1`, 7.3 nM.
